This passage reports Activity results from ChEMBL document CHEMBL1146799, “Molecular modeling on DNA cleavage activity of seryl-histidine and related dipeptide” (Bioorg Med Chem Lett, 2004).

Residues, ends and D or L forms follow the SMILES beside them.

Experiment [1] relates to Nucleic Acid. Description: DNA cleaving activity was determined; +++++ indicates 100% of Ser-His cleavage activity. The format is functional.
The test system of experiment [2] is Nucleic Acid. The experiment is described as follows: DNA cleaving activity was determined; +/- indicates marginally detectable cleavage activity. The format is functional.

Take `N[C@@H](CO)C(=O)N[C@@H](Cc1c[nH]cn1)C(=O)O` (H-Ser-His-OH): in experiment [1], the Activity entry is “++++”.

Consider `C[C@@H](O)[C@H](N)C(=O)N[C@@H](Cc1c[nH]cn1)C(=O)O` (H-Thr-His-OH), for which the Activity result in experiment [2] is “+/-”.
